Assay results reported in patent publication US12011449B2, “Therapeutic combinations comprising a c-RAF inhibitor” (Novartis AG, priority 2016, dated 2024).
Like-named read-outs stand apart in the source and are kept apart here. Each block holds one compound with its values, some of them ahead of it.

Key:
A375/MEK1 C121S = assay: Anti-proliferative effect in mechanistic A375 models, A375/MEK1 C121S; type: cell-based; details: Homo sapiens, A-375, doxycycline-induced, 72 hours
Method: (§1) To investigate the activity of Compound A in BRAF V600 mutant melanoma cells refractory to BRAF and/or MEK inhibitors, the anti-proliferative activity of Compound A in the mechanistic models derived from the BRAF V600 melanoma cell line A375 expressing mutations of MEK1/2, NRAS, or a splice variant of BRAF was evaluated.

A375/MEK2 Q60P = assay: Anti-proliferative effect in mechanistic A375 models, A375/MEK2 Q60P; type: cell-based; details: Homo sapiens, A-375, doxycycline-induced, 72 hours
Method: as §1

A375/MEK1 Q56P = assay: Anti-proliferative effect in mechanistic A375 models, A375/MEK1 Q56P; type: cell-based; details: Homo sapiens, A-375, doxycycline-induced, 72 hours
Method: as §1

A375 [1] = assay: Anti-proliferative effect in mechanistic A375 models, parental A375; type: cell-based; details: Homo sapiens, A-375, 72 hours, CellTiter-Glo
Method: as §1

A375/MEK1 E203K = assay: Anti-proliferative effect in mechanistic A375 models, A375/MEK1 E203K; type: cell-based; details: Homo sapiens, A-375, doxycycline-induced, 72 hours
Method: as §1

A375/BRAFp61-V600E = assay: Anti-proliferative effect in mechanistic A375 models, A375/BRAFp61-V600E; type: cell-based; details: Homo sapiens, A-375, doxycycline-induced, 72 hours
Method: as §1

A375/NRAS Q61K = assay: Anti-proliferative effect in mechanistic A375 models, A375/NRAS Q61K; type: cell-based; details: Homo sapiens, A-375, doxycycline-induced, 72 hours
Method: as §1

[2] = tested on: Calu-6 human NSCLC xenograft; assay: Calu-6 NSCLC subcutaneous xenograft, single agents and combination; type: in vivo; details: for durability of tumor response: under treatment, 42 days post dosing
Method: Calu-6 NSCLC tumors were established in athymic female mice by subcutaneous injection of 10 million cells in 50% Matrigel™ into the flank of each mouse. […] A-B) Tumor volumes of treatment groups vs. days post randomization. C) Mean percent change in body weight from initial.
Combined treatment with Compound A and Compound B led to increased depth and durability of tumor response compared to either single agent in the human NSCLC xenograft Calu-6. […] Combining Compound A dosed at 30 mg/kg qd with Compound B dosed at either 50 mg/kg qd or 75 mg/kg q2d achieved 66% and 51% regressions, respectively, 17 days post dosing. In addition to the increased depth of response, the combination of Compound A and Compound B also led to an increased durability of response.

PSN1 (KRAS^G12R) = assay: 3 day proliferation assay, PSN1; type: cell-based; details: Homo sapiens, 72 h, read-out: IC50 cell growth
Calu6 (KRAS^Q61K) = assay: 3 day proliferation assay, Calu6; type: cell-based; details: Homo sapiens, Calu-6, 72 h, read-out: IC50 cell growth
HeyA8 (KRAS^G12D) = assay: 3 day proliferation assay, HeyA8; type: cell-based; details: Homo sapiens, HEY A8, 72 h, read-out: IC50 cell growth
AsPC-1 (KRAS^G12D) = assay: 3 day proliferation assay, AsPC-1; type: cell-based; details: Homo sapiens, ASPC1, 72 h, read-out: IC50 cell growth
[3] = Clinical PK of Compound A tablets, once daily, fasted subjects; type: in vivo, human; details: plasma; for AUC: day 1 of dosing, read-out: Mean plasma exposure over the dose interval of 24 hours (AUCtau); for Cmax: oral tablets, fasted subjects, read-out: Maximum plasma concentration (Cmax)
Method: Compound A was formulated with hydroxypropylmethylcellulose/Hypromellose, colloidal silicon dioxide, microcrystalline cellulose, polyvinylpyrrolidone/Povidone and magnesium stearate, and formed into tablets containing about 50 mg of Compound A. A number of tablets sufficient to provide a desired dosage were administered once daily to fasted subjects. Subjects were treated at doses of 100 mg once per day, or 200 mg once per day. Serial blood samples for PK assessments were collected up to 48 hours after the first dose of Compound A (Cycle 1 Day 1), and up to 24 hours after multiple doses (Cycle 1 Day 15). […] Mean plasma exposure over the dose interval of 24 hours (AUCtau) on day 1 of dosing was 5679 hr·ng/ml and 10019 hr·ng/ml after the 100 mg and 200 mg doses of Compound A, respectively. […] As this study is on-going, all data presented are considered preliminary.

TCC-PAN2 = assay: Proliferation, CellTiter-Glo 72 h, TCC-PAN2; type: cell-based; details: Homo sapiens, TCC-PAN2, Pancreas, BRAF WT, KRAS G12R
Description: (§2) Note that activity is especially strong on cell lines that harbor at least one mutation in BRAF or RAS.

[4] = tested on: Calu-6 (KRAS Q61K) xenograft; assay: Calu-6 xenograft in nude rats; type: in vivo
IPC298 = assay: Proliferation, CellTiter-Glo 72 h, IPC298; type: cell-based; details: Homo sapiens, IPC-298, IPC298, Melanoma, BRAF WT, NRAS Q61L
Description: as §2

PC3 = assay: Proliferation, CellTiter-Glo 72 h, PC3; type: cell-based; details: Homo sapiens, PC-3, PC3, Prostate, BRAF WT, RAS WT
Description: as §2

HCC827 = assay: Proliferation, CellTiter-Glo 72 h, HCC827; type: cell-based; details: Homo sapiens, HCC827, NSCLC, BRAF WT, RAS WT
Description: as §2

HCT116 = assay: Proliferation, CellTiter-Glo 72 h, HCT116; type: cell-based; details: Homo sapiens, HCT-116, HCT116, Colorectal, BRAF WT, KRAS G13D
Description: as §2

[5] = tested on: Calu-6 (KRAS Q61K), HCT116 (KRAS G13D); assay: Cell-based proliferation, Calu-6 and HCT116; details: Homo sapiens
[6] = tested on: NCI-H358 (KRAS G12C) xenograft; assay: NCI-H358 xenograft in mice; type: in vivo; details: 200 mg/kg QD
Method: (§3) SCID beige female tumor-bearing NCI-H358 mice, n=8 per group, were randomized into 3 groups 14 days post tumor cell inoculation with an average tumor volume range of 259.44-262.47 mm^3.
(§4) Regressions were also achieved in a second human NSCLC model, NCI-H358, at the 200 mg/kg QD dose in mice and in the human ovarian Hey-A8 xenograft at doses as low as 30 mg/kg QD in mice.

KRASmt NSCLC models = assay: Human KRAS-mutant xenograft models, overall statements; type: in vivo
Method: as §3
(§5) Female nude tumor bearing Calu6 mice, n=6 per group were randomized into treatment groups on day 17 following tumor implantation, when the average tumor volume was 180 mm3. Treatments with compound A were initiated on Day 17 and continued for 16 days. Dosing volume was 10 mL/kg. Tumor volumes were collected at the time of randomization and twice weekly thereafter for the study duration.
Nude female mice tumor bearing NCI-H358, n=8 per group, were randomized into 2 groups with an average tumor volume range of 275.74 mm3.

PSN1 = assay: Proliferation, CellTiter-Glo 72 h, PSN1; type: cell-based; details: Homo sapiens, PSN1, Pancreas, BRAF WT, KRAS G12R
Description: as §2

HeyA8 = assay: Proliferation, CellTiter-Glo 72 h, HeyA8; type: cell-based; details: Homo sapiens, HEY A8, HeyA8, Ovarian, BRAF G464E, KRAS G12D
Description: as §2

[7] = tested on: non-small cell lung cancer (NSCLC); assay: Phase I dose finding study, tumor response (RECIST); type: in vivo, human; details: one NSCLC subject, 1200 mg QD, preliminary
Method: The recommended starting dose and regimen of Compound A single agent in this study is 100 mg QD orally based on the preclinical safety, tolerability data, PK/PD data obtained in preclinical studies, as well as exploratory human efficacious dose range projection. […] For maximum flexibility of dosing, Compound A may be prepared as 50 mg and/or 100 mg tablets for oral administration. A proposed formulation for clinical use of Compound A includes Compound A combined with one or more excipients selected from hydroxypropylmethylcellulose (Hypromellose), colloidal silicon dioxide, microcrystalline cellulose, polyvinylpyrrolidone (Povidone), and magnesium stearate, and can be prepared in the form of tablets for oral administration, suitably containing 50 mg or 100 mg of Compound A. This was further confirmed by preliminary results obtained from the clinical trial.

[8] = tested on: human ovarian Hey-A8 xenograft; assay: Hey-A8 ovarian xenograft in mice; type: in vivo; details: doses as low as 30 mg/kg QD
Method: as §4

A375 [9] = assay: Proliferation, CellTiter-Glo 72 h, A375; type: cell-based; details: Homo sapiens, A-375, A375, Melanoma, BRAF V600E, RAS WT
Description: as §2

WM2664 = assay: Proliferation, CellTiter-Glo 72 h, WM2664; type: cell-based; details: Homo sapiens, WM 266-4, WM2664, Melanoma, BRAF V600D, RAS WT
Description: as §2

[10] = tested on: Calu-6 (KRAS Q61K) xenograft; assay: Calu-6 xenograft in nude mice; type: in vivo
Method: as §5, §4

NCI-H2073 = assay: Proliferation, CellTiter-Glo 72 h, NCI-H2073; type: cell-based; details: Homo sapiens, NCI-H2073, NSCLC, BRAF WT, RAS WT
Description: as §2

[11] = tested on: A375 derivatives expressing mutations of MEK1/2, NRAS, or a splice variant of BRAF; assay: IC50 shift of resistant A375 models versus parental A375; type: cell-based, human
Method: as §1

[12] = tested on: DUSP6 (dual specificity phosphatase 6); assay: DUSP6 pharmacodynamic biomarker in vivo; details: subject receiving a dosage associated with efficacious plasma levels
Description: In addition, an efficacious dosage can be determined by monitoring biomarkers indicative of MAP kinase pathway inhibition.

Calu-6 = assay: Proliferation, CellTiter-Glo 72 h, Calu-6; type: cell-based; details: Homo sapiens, Calu-6, NSCLC, BRAF WT, KRAS Q61K
Description: as §2

HuP-T4 = assay: Proliferation, CellTiter-Glo 72 h, HuP-T4; type: cell-based; details: Homo sapiens, HuP-T4, Pancreas, BRAF WT, KRAS G12V
Description: as §2

- IC50 (A375/MEK1 C121S): 2330 nM
- IC50 (A375/MEK2 Q60P): 4840 nM
- IC50 (A375/MEK1 Q56P): 5350 nM
- IC50 (A375/MEK1 E203K): 1810 nM
- IC50 (A375/BRAFp61-V600E): > 10000 nM
- IC50 (A375/NRAS Q61K): 5500 nM
Compound: Cn1cnc2c(F)c(Nc3ccc(Br)cc3Cl)c(C(=O)NOCCO)cc21 [Selumetinib]
- IC50 (A375 [1]): 36 nM

Compound: CNC[C@@H](NC(=O)c1ccc(-c2nc([C@H]3CC[C@H](O)[C@@H](F)C3)cnc2N)cc1F)c1cc(F)cc(Br)c1 [Compound B, 4-(3-amino-6-((1S,3S,4S)-3-fluoro-4-hydroxycyclohexyl)pyrazin-2-yl)-N-((S)-1-(3-bromo-5-fluorophenyl)-2-(methylamino)ethyl)-2-fluorobenzamide]
- regressions ([2]; Compound B 50 mg/kg qd, oral, 17 days post dosing): 22%
- T/C ([2]; Compound B 75 mg/kg q2d, oral, 17 days post dosing): 4%
- durability of tumor response [2]: progressed under treatment
- IC50 (PSN1 (KRAS^G12R)): < 1000 nM
- IC50 (Calu6 (KRAS^Q61K)): < 1000 nM
- IC50 (HeyA8 (KRAS^G12D)): < 1000 nM
- IC50 (AsPC-1 (KRAS^G12D)): < 1000 nM

- IC50 (A375/MEK1 C121S): 8700 nM
- IC50 (A375/MEK2 Q60P): 5280 nM
- IC50 (A375/MEK1 Q56P): 9620 nM
- IC50 (A375/MEK1 E203K): 5580 nM
- IC50 (A375/BRAFp61-V600E): 8510 nM
- IC50 (A375/NRAS Q61K): 9380 nM
Compound: CCCS(=O)(=O)Nc1ccc(F)c(C(=O)c2c[nH]c3ncc(-c4ccc(Cl)cc4)cc23)c1F [Vemurafenib]
- IC50 (A375 [1]): 66 nM

Compound: Cc1ccc(NC(=O)c2ccnc(C(F)(F)F)c2)cc1-c1cc(OCCO)nc(N2CCOCC2)c1 [Compound A, N-(3-(2-(2-hydroxyethoxy)-6-morpholinopyridin-4-yl)-4-methylphenyl)-2-(trifluoromethyl)isonicotinamide]
- AUC ([3]; human, oral, 100 mg): 5680 ng·h/mL
- AUC ([3]; human, oral, 200 mg): 10000 ng·h/mL
- half-life ([3]; human, oral, in patients): 23 to 24 h
- Cmax ([3]; human, single 100 mg dose): 447 ng/mL
- Cmax ([3]; human, single 200 mg dose): 889 ng/mL
- accumulation ratio ([3]; once daily dosing of 100 mg): 1.8
- IC50 (TCC-PAN2): 420 nM
- anti-tumor effect ([4]; nude rats, 75 and 150 mg/kg QD): regressions
- anti-tumor effect ([4]; rats, 35 mg/kg QD): Tumor stasis
- T/C ([2]; Compound A 30 mg/kg qd, oral, 17 days post dosing): 26%
- durability of tumor response [2]: progressed under treatment
- IC50 (A375/MEK1 C121S): 1140 nM
- IC50 (IPC298): 250 nM
- IC50 (A375/MEK2 Q60P): 1120 nM
- IC50 (A375/MEK1 Q56P): 1150 nM
- IC50 (A375 [1]): 420 nM
- IC50 (PC3): > 20000 nM
- IC50 (HCC827): > 20000 nM
- IC50 (HCT116): 470 nM
- IC50 [5]: 200 to 1200 nM
- anti-tumor effect [6]: Regressions
- IC50 (A375/MEK1 E203K): 1050 nM
- single agent anti-tumor activity (KRASmt NSCLC models; H358, Calu6, H727 models, oral daily): showed single agent activity
- tolerability (body weight loss) (KRASmt NSCLC models; in all cases (KRAS-mutant xenograft models)): well tolerated as judged by lack of significant body weight loss
- IC50 (A375/BRAFp61-V600E): 720 nM
- IC50 (PSN1): 680 nM
- IC50 (HeyA8): 210 nM
- predicted half-life (Predicted human PK): ~9 h
- partial response according to RECIST [7]: −35%
- anti-tumor effect [8]: Regressions
- IC50 (A375 [9]): 240 nM
- IC50 (WM2664): 450 nM
- anti-tumor effect ([10]; mice, 30 mg/kg QD): Tumor stasis
- anti-tumor effect ([10]; nude mice, 100, 200, and 300 mg/kg once daily (QD)): regressions
- IC50 (NCI-H2073): 18200 nM
- IC50 (A375/NRAS Q61K): 950 nM
- increase in IC50 in resistant models [11]: 2-3 fold
- in vivo levels of DUSP6 [12]: drop
- IC50 (Calu-6): 1500 nM
- IC50 (HuP-T4): 650 nM
